Where a SMILES comes first, the peptide text is derived from it. [ ]: non-standard residue; d: D form. The star is where a group is joined. Stearoyl = CCCCCCCCCCCCCCCCCC(=O)*; Palmitoyl = CCCCCCCCCCCCCCCC(=O)*; Myristoyl = CCCCCCCCCCCCCC(=O)*; Aib = CC(C)(N)C(=O)O
Legend:
Type in all cases: cell-based
[1] = molecular target: T1, glucagon receptor (Homo sapiens, UniProt P47871); test: cAMP synthesis functional assay (firefly luciferase reporter in HEK293 cells), glucagon receptor; conditions: for EC50: Glucagon Receptor EC50, cAMP luciferase reporter assay as in Example 16; for Glucagon Receptor relative activity: relative to the standard (Std.) EC50 of the same run
T1 construct: expressed in transfected cells; host or cells: HEK293
T1 sequence (P47871 26-477): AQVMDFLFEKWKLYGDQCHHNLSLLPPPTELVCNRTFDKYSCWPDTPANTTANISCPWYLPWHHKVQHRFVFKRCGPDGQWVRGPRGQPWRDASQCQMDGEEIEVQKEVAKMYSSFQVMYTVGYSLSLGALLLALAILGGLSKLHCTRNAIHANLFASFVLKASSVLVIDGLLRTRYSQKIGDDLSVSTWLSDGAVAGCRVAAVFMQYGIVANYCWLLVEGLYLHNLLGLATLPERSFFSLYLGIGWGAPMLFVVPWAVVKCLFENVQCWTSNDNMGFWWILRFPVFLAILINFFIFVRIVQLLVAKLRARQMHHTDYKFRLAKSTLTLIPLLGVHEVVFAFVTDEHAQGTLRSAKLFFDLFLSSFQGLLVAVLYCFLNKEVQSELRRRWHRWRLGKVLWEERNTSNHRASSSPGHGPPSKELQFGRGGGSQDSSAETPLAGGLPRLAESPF

[2] = molecular target: T2, GLP-1 receptor (Homo sapiens, UniProt P43220); test: cAMP synthesis functional assay (firefly luciferase reporter in HEK293 cells), GLP-1 receptor; conditions: for EC50: GLP-1 Receptor EC50, cAMP luciferase reporter assay as in Example 16; for GLP-1 Receptor relative activity: relative to the standard (Std.) EC50 of the same run
T2 construct: expressed in transfected cells; host or cells: HEK293
T2 sequence (P43220 24-463, species assumed): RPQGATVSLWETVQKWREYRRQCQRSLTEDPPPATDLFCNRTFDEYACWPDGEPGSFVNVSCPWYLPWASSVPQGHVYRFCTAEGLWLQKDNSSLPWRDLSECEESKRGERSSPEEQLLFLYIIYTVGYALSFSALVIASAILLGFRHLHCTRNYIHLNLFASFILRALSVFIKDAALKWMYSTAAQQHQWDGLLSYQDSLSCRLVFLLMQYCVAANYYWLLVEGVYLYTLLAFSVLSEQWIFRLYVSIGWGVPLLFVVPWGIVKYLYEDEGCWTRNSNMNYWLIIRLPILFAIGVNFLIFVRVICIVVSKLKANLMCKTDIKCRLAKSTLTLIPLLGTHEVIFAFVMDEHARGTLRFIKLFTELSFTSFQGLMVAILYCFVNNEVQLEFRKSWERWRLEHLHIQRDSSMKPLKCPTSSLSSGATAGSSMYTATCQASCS

[3] = molecular target: T3, GIP receptor (Homo sapiens, UniProt P48546); test: cAMP synthesis functional assay (firefly luciferase reporter in HEK293 cells), GIP receptor; conditions: for GIP Receptor relative activity: relative to the standard (Std.) EC50 of the same run; for EC50: GIP Receptor EC50, cAMP luciferase reporter assay as in Example 16
T3 construct: expressed in transfected cells; host or cells: HEK293
T3 sequence (P48546 22-466): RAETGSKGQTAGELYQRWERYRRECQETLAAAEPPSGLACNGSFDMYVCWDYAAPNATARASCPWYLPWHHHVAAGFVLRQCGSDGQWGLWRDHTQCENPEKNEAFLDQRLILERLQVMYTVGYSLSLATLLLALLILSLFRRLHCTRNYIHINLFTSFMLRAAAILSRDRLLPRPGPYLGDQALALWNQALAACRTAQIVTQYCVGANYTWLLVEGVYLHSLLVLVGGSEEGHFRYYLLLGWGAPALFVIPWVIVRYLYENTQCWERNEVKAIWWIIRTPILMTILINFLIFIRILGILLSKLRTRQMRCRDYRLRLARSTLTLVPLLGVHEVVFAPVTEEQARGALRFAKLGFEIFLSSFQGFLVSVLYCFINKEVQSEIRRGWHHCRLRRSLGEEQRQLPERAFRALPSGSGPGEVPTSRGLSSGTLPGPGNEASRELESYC

SMILES	EC50 [1] [nM]	Glucagon Receptor relative activity [1] [%]	EC50 [2] [nM]	GLP-1 Receptor relative activity [2] [%]	GIP Receptor relative activity [3] [%]	EC50 [3] [pM]
CCCCCCCCCCCCCC(=O)NCCCC[C@H](NC(=O)[C@H](CC(=O)O)NC(=O)[C@H](CO)NC(=O)[C@@H](NC(=O)[C@H](Cc1ccccc1)NC(=O)[C@@H](NC(=O)CNC(=O)[C@H](CCC(=O)O)NC(=O)C(C)(C)NC(=O)[C@@H](N)Cc1ccc(O)cc1)[C@@H](C)O)[C@@H](C)O)C(=O)N[C@@H](CO)C(=O)N[C@H](C(=O)N[C@@H](Cc1ccc(O)cc1)C(=O)N[C@@H](CC(C)C)C(=O)N[C@@H](CC(=O)O)C(=O)N[C@@H](CCCCN)C(=O)N[C@@H](CCC(N)=O)C(=O)N[C@@H](C)C(=O)N[C@@H](C)C(=O)NC(C)(C)C(=O)N[C@@H](CCC(=O)O)C(=O)N[C@@H](Cc1ccccc1)C(=O)N[C@H](C(=O)N[C@@H](CC(N)=O)C(=O)N[C@@H](Cc1c[nH]c2ccccc12)C(=O)N[C@@H](CC(C)C)C(=O)N[C@@H](CC(C)C)C(=O)N[C@@H](C)C(=O)NCC(N)=O)C(C)C)[C@@H](C)CC [mt-282] (H-Y[Aib]EGTFTSDK(Myristoyl)SIYLDKQAA[Aib]EFVNWLLAG-NH2; N-terminus assumed)	2.44	1.18	0.0134	44.03	76.69	
CC[C@H](C)[C@H](NC(=O)[C@H](CO)NC(=O)[C@H](Cc1ccc(O)cc1)NC(=O)[C@H](CC(=O)O)NC(=O)[C@H](CO)NC(=O)[C@@H](NC(=O)[C@H](Cc1ccccc1)NC(=O)[C@@H](NC(=O)CNC(=O)[C@H](CCC(=O)O)NC(=O)C(C)(C)NC(=O)[C@@H](N)Cc1ccc(O)cc1)[C@@H](C)O)[C@@H](C)O)C(=O)N[C@@H](Cc1ccc(O)cc1)C(=O)N[C@@H](CC(C)C)C(=O)N[C@@H](CC(=O)O)C(=O)N[C@@H](CCCCN)C(=O)N[C@@H](CCC(N)=O)C(=O)N[C@@H](C)C(=O)N[C@@H](C)C(=O)NC(C)(C)C(=O)N[C@@H](CCC(=O)O)C(=O)N[C@@H](Cc1ccccc1)C(=O)N[C@H](C(=O)N[C@@H](CS)C(=O)N[C@@H](Cc1c[nH]c2ccccc12)C(=O)N[C@@H](CC(C)C)C(=O)N[C@@H](CC(C)C)C(=O)N[C@@H](C)C(=O)NCC(=O)NCC(=O)N1CCC[C@H]1C(=O)N[C@@H](CO)C(=O)N[C@@H](CO)C(=O)NCC(=O)N[C@@H](C)C(=O)N1CCC[C@H]1C(=O)N1CCC[C@H]1C(=O)N1CCC[C@H]1C(=O)N[C@@H](CO)C(=O)N[C@@H](CCCCN)C(N)=O)C(C)C [mt-308]	12.2	0.39		68.35	285.96	5.7
CCCCCCCCCCCCCC(=O)NCCCC[C@@H](NC(=O)[C@H](CO)NC(=O)[C@@H]1CCCN1C(=O)[C@@H]1CCCN1C(=O)[C@@H]1CCCN1C(=O)[C@H](C)NC(=O)CNC(=O)[C@H](CO)NC(=O)[C@H](CO)NC(=O)[C@@H]1CCCN1C(=O)CNC(=O)CNC(=O)[C@H](C)NC(=O)[C@H](CC(C)C)NC(=O)[C@H](CC(C)C)NC(=O)[C@H](Cc1c[nH]c2ccccc12)NC(=O)[C@H](CS)NC(=O)[C@@H](NC(=O)[C@H](Cc1ccccc1)NC(=O)[C@H](CCC(=O)O)NC(=O)C(C)(C)NC(=O)[C@H](C)NC(=O)[C@H](C)NC(=O)[C@H](CCC(N)=O)NC(=O)[C@H](CCCCN)NC(=O)[C@H](CC(=O)O)NC(=O)[C@H](CC(C)C)NC(=O)[C@H](Cc1ccc(O)cc1)NC(=O)[C@@H](NC(=O)[C@H](CO)NC(=O)[C@H](Cc1ccc(O)cc1)NC(=O)[C@H](CC(=O)O)NC(=O)[C@H](CO)NC(=O)[C@@H](NC(=O)[C@H](Cc1ccccc1)NC(=O)[C@@H](NC(=O)CNC(=O)[C@H](CCC(=O)O)NC(=O)C(C)(C)NC(=O)[C@@H](N)Cc1ccc(O)cc1)[C@@H](C)O)[C@@H](C)O)[C@@H](C)CC)C(C)C)C(N)=O [mt-333]	0.691	2.80	0.0028	85.71	226.47	3.4

Continued, in another order:

EC50 [1] [nM]	Glucagon Receptor relative activity [1] [%]	EC50 [2] [nM]	GLP-1 Receptor relative activity [2] [%]	GIP Receptor relative activity [3] [%]	SMILES	EC50 [3] [pM]
7.94	0.36	0.0158	37.34	83.61	CCCCCCCCCCCCCCCC(=O)NCCCC[C@H](NC(=O)[C@H](CC(=O)O)NC(=O)[C@H](CO)NC(=O)[C@@H](NC(=O)[C@H](Cc1ccccc1)NC(=O)[C@@H](NC(=O)CNC(=O)[C@H](CCC(=O)O)NC(=O)C(C)(C)NC(=O)[C@@H](N)Cc1ccc(O)cc1)[C@@H](C)O)[C@@H](C)O)C(=O)N[C@@H](CO)C(=O)N[C@H](C(=O)N[C@@H](Cc1ccc(O)cc1)C(=O)N[C@@H](CC(C)C)C(=O)N[C@@H](CC(=O)O)C(=O)N[C@@H](CCCCN)C(=O)N[C@@H](CCC(N)=O)C(=O)N[C@@H](C)C(=O)N[C@@H](C)C(=O)NC(C)(C)C(=O)N[C@@H](CCC(=O)O)C(=O)N[C@@H](Cc1ccccc1)C(=O)N[C@H](C(=O)N[C@@H](CC(N)=O)C(=O)N[C@@H](Cc1c[nH]c2ccccc12)C(=O)N[C@@H](CC(C)C)C(=O)N[C@@H](CC(C)C)C(=O)N[C@@H](C)C(=O)NCC(N)=O)C(C)C)[C@@H](C)CC [mt-283] (H-Y[Aib]EGTFTSDK(Palmitoyl)SIYLDKQAA[Aib]EFVNWLLAG-NH2; N-terminus assumed)	
4.17	0.69	0.0155	38.06	54.84	CCCCCCCCCCCCCCCCCC(=O)NCCCC[C@H](NC(=O)[C@H](CC(=O)O)NC(=O)[C@H](CO)NC(=O)[C@@H](NC(=O)[C@H](Cc1ccccc1)NC(=O)[C@@H](NC(=O)CNC(=O)[C@H](CCC(=O)O)NC(=O)C(C)(C)NC(=O)[C@@H](N)Cc1ccc(O)cc1)[C@@H](C)O)[C@@H](C)O)C(=O)N[C@@H](CO)C(=O)N[C@H](C(=O)N[C@@H](Cc1ccc(O)cc1)C(=O)N[C@@H](CC(C)C)C(=O)N[C@@H](CC(=O)O)C(=O)N[C@@H](CCCCN)C(=O)N[C@@H](CCC(N)=O)C(=O)N[C@@H](C)C(=O)N[C@@H](C)C(=O)NC(C)(C)C(=O)N[C@@H](CCC(=O)O)C(=O)N[C@@H](Cc1ccccc1)C(=O)N[C@H](C(=O)N[C@@H](CC(N)=O)C(=O)N[C@@H](Cc1c[nH]c2ccccc12)C(=O)N[C@@H](CC(C)C)C(=O)N[C@@H](CC(C)C)C(=O)N[C@@H](C)C(=O)NCC(N)=O)C(C)C)[C@@H](C)CC [mt-284] (H-Y[Aib]EGTFTSDK(Stearoyl)SIYLDKQAA[Aib]EFVNWLLAG-NH2; N-terminus assumed)	

From patent US9062124B2, “GIP-based mixed agonists for treatment of metabolic disorders and obesity” (priority 2008, dated 2015)
